Here are results for three compounds from patent US11369618B2, “Compounds, compositions and methods for prevention and/or treatment of cancer” (THE TRUSTEES OF THE UNIVERSITY OF PENNSYLVANIA, priority 2016, dated 2022).

“Also recorded” adds a separate entry of the source.

The subject of assay [1] is mouse and human melanoma cell lines (B16F10, WM46, WM51, WM3702). In words: proliferation assay of mouse and human melanoma cell lines in vitro. It counts as cell-based. Particulars: estrogen 25 nM E2, G-1 100 nM, vs delivery vehicle. The text has this: (§1) FIGS. 4A-4F illustrate the finding that GPER signaling slows proliferation and drives differentiation in mouse and human melanoma. FIG. 4A: 5 day proliferation assay of B16F10, WM46 (BRAF^V600E), WM51 (BRAF^V600E), and WM3702 (NRAS^Q61L) cells treated with estrogen (E2), * denotes significance by a two-tailed T-test, n=3 per group. FIG. 4B: 5 day melanin assay of B16F10, WM46 (BRAF^V600E), WM51 (BRAF^V600E), and WM3702 (NRAS^Q61L) cells treated with E2, * denotes significance by a two-tailed T-test, n=3 per group. FIG. 4C: 5 day proliferation assay of B16F10, WM46 (BRAF^V600E), WM51 (BRAF^V600E) and WM3702 (NRAS^Q61L) cells treated with GPER agonist (G-1), * denotes significance by a two-tailed T-test, n=3 per group. FIG. 4D: 5 day melanin assay of B16F10, WM46 (BRAF^V600E), WM51 (BRAF^V600E), and WM3702 (NRAS^Q61L) cells treated with G-1, * denotes significance by a two-tailed T-test, n=3 per group. FIG. 4E: 3 day proliferation assay of B16F10 cells treated with a dose response of G-1, * denotes significance One-way ANOVA with Tukey's multiple comparison test, n=5 per group. FIG. 4F: Western blot of B16F10 cells treated for 16 hours with a saturating dose response of G-1. […]
(§2) Tumor cell proliferation slowed in both mouse and human melanoma cells following treatment with estrogen or G-1, a specific GPER agonist. […] Cell proliferation and differentiation (melanin production) were measured.

Assay [2] has as its system Mouse (B16) and human (WM46) melanoma cell lines. In words: tumor formation in mice from melanoma cells pretreated in vitro. It counts as in vivo. The protocol:
(§3) FIG. 11A: Long-term melanin assay in which normal human melanocytes were transiently treated with progesterone (P4), or estrogen (E2). Subsets of these groups (Red) were treated with an additional transient pulse of P4 at Day 27. Error bars equal the standard deviation of the samples. FIG. 11B: Western blot of melanocyte differentiation markers after a transient, 4-day treatment with either vehicle or estrogen, followed by an 8 day withdraw period. FIG. 11C: Experimental timeline of estrogen or GPER agonist (G-1) pre-treatment of mouse and human melanoma cells, n=5 per group. FIG. 11D: Relative tumor weights of mouse and human melanomas pre-treated with estrogen, * denotes significance by the Mann-Whitney test. FIG. 11E: Relative tumor weights of mouse and human melanomas pre-treated with G-1, * denotes significance by the Mann-Whitney test.
Mouse (B16) and human (WM46) cell lines were pretreated with estrogen, G-1, or vehicle in vitro for one week then injected in equal numbers in to the left (vehicle-treated) or right (E2-treated) flank of mice, inducing tumor formation (N=5 mice per group) (FIG. 5). 14-16 days later, mice were imaged and tumors were harvested and weighed.
To test whether transient GPER signaling induces a persistent differentiation state in melanoma cells that affects subsequent tumor growth in vivo, melanoma cells were treated with estrogen, G-1, or vehicle in vitro, and subsequently injected equal numbers of treated cells into host mice (FIG. 11C).

Assay [3] concerns mouse and human melanoma cell lines (B16F10, WM46, WM51, WM3702). In words: melanin assay (differentiation) of mouse and human melanoma cell lines in vitro. Type of assay: cell-based. Particulars: estrogen 25 nM E2, G-1 100 nM, vs delivery vehicle.
Text: as §1, §2

In assay [4] the test system is normal human melanocytes. In words: differentiation of normal human melanocytes after continuous or transient hormone exposure (melanin, RNAseq, Western blot). It counts as cell-based. Particulars: for melanocyte differentiation state (melanin pigment production) / melanin production after hormone withdrawal: normal human melanocytes; for melanocyte differentiation state (melanin pigment production): hormone or agonist exposure; for melanin production after hormone withdrawal: transient exposure then withdrawal. How it is done:
as §3
Normal human melanocytes received a pulse-treatment of estrogen—this consisted of 4 days of estrogen treatment followed by an 8 day withdraw.
To test whether pregnancy-associated hormones induce long-lasting changes in melanocyte differentiation that may affect their future susceptibility to transformation, primary human melanocytes were transiently exposed to estrogen or progesterone (FIGS. 11A-11E).
A subset of cells differentiated by transient exposure to estrogen was subsequently treated with progesterone.

The subject of assay [5] is histone posttranslational modifications. Put plainly: mass spectrometry of histone posttranslational modifications in estrogen-treated melanocytes. It counts as cell-based, human. The text has this: FIG. 16B: Western blot of p-RB, c-Myc, and H3K56ac in melanoma cells after treatment with G-1, HDACi, or in combination. FIG. 16C: Proliferation assay of B16F10 melanoma cells after treatment with G-1, HDACi, or in combination.
To begin to identify the epigenetic changes likely underlying stable melanocyte differentiation after GPER activation, mass spectrometry was used to obtain a global analysis of histone posttranslational modifications in estrogen-treated MC.

Assay [6] concerns human melanocytes. Put plainly: pigment production and differentiation in human melanocytes treated with MSH or afamelanotide (FIG. 9). Type of assay: cell-based. The text has this: FIG. 9 is a set of bar graphs illustrating the finding that MSH (the endogenous equivalent of afamelanotide) and afamelanotide (also known as […] or NDP-α-MSH) increase pigment production (top) and differentiation (bottom) in human melanocytes.

Turning to `C[C@]12CC[C@@H]3c4ccc(O)cc4CC[C@H]3[C@@H]1CC[C@@H]2O` [estrogen, estradiol], the melanoma cell proliferation result in assay [1] is reported as “slowed melanoma cell proliferation”. In addition, the “inhibition of tumor growth in vivo” value in assay [2] (cells pretreated in vitro for one week, injected into flank of mice, tumors weighed 14-16 days later) was “approximately 3 fold”. In addition, the “tumor growth / tumor size from pretreated cells” value in assay [2] (melanoma cells pretreated in vitro, equal numbers injected into mice) is on record as “formed significantly smaller tumors; also recorded: markedly reduced subsequent tumor size; also recorded: inhibits melanoma cell line growth in vivo”. The “differentiation (melanin production)” value in assay [3] was “drove differentiation”. The “expression of aggressive melanoma markers such as premelanosome protein (PMEL)” value in assay [4] (4 days of treatment followed by an 8 day withdraw, RNAseq) is reported as “decreased expression”. In assay [4] (4 days of treatment followed by an 8 day withdraw, RNAseq, Western blot), the “expression of melanocyte differentiation markers (TYR, TRP1, MC1R, MLANA, DCT)” value is “maintained upregulated expression of all the major melanocyte differentiation markers; also recorded: stable increases in classic melanocyte differentiation antigens”. For the same compound, in assay [4], the “melanocyte differentiation state (melanin pigment production)” value (“melanocyte differentiation state” for short) is “increases melanocyte differentiation state; also recorded: increase the differentiation state of human melanocytes” and the “melanin production after hormone withdrawal” value is listed as “stably produced more melanin”. Moreover, the “melanocyte differentiation state” value in assay [4] (listed as Estrogen) was “make more pigment; also recorded: increased melanin production”. Also, the H3K9ac mark result in assay [5] was “decreased”. Besides, the “histone acetylation marks regulated by CBP/P300, including H3K122, H3K23, and H3K18” value in assay [5] (3 independent biologic replicates) is “significant increases”.

Regarding `CC(=O)[C@H]1CC[C@H]2[C@@H]3CCC4=CC(=O)CC[C@]4(C)[C@H]3CC[C@]12C` [progesterone], in assay [4], the “melanocyte differentiation state” value is recorded as “had opposite effects” and the “melanin production after hormone withdrawal” value is recorded as “quickly returned to their baseline level of melanin production”.

Take “MSH: the endogenous equivalent of afamelanotide (Ac-SYSMEHFRWGKPV-NH2; ends and bridges not checked; UniProt P01189 138-150, looked up)”: in assay [6], the differentiation result was “increase” and the pigment production entry is reported as “increase”.
